The text below walks through data of PubChem BioAssay (NCI).

Molecules are shown by their SMILES.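 Five compound concentrations were applied to cells in 96-well plates for 48 hours; endpoints were derived by simple linear interpolation of the resulting dose-response curve. The concentration for full growth arrest is given as TGI.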 Some results are limits rather than exact numbers.

Among the test systems are SK-MEL-5 melanoma; UO-31 renal; T-47D breast; SK-MEL-2 melanoma; K-562 leukemia; TK-10 renal; 786-0 renal; DU-145 prostate; HL-60(TB) leukemia; OVCAR-3 ovarian; MALME-3M melanoma; MDA-N; COLO 205 colon; UACC-62 melanoma; OVCAR-8 ovarian; NCI-H226 lung.
Holding throughout (assay): NCI-60 cell line screen, 48 h

For `CC(C)(C)OC(=O)NC(Cc1cnc[nH]1)C(=O)N1CCCC1C(N)=O` (configuration not stated), the TGI in the experiment on SK-MEL-5 melanoma, in the experiment on UO-31 renal, in the experiment on T-47D breast, in the experiment on SK-MEL-2 melanoma, in the experiment with K-562 leukemia and in the experiment on TK-10 renal was more than 100 µM each time. Besides, the TGI in the experiment with 786-0 renal, with DU-145 prostate, with HL-60(TB) leukemia, in the experiment on OVCAR-3 ovarian, in the experiment with MALME-3M melanoma and with MDA-N was more than 100 µM in each case. For the same compound, the TGI with COLO 205 colon, in the experiment on UACC-62 melanoma, in the experiment with OVCAR-8 ovarian and in the experiment with NCI-H226 lung was more than 100 µM throughout.
On to `COc1cc2c(cc1OC)C1(c3ccccc3)CN(C2)Cc2cc(OC)c(OC)cc21`, for which the TGI in the experiment on SK-MEL-5 melanoma is 53.3 µM; in the experiment on UO-31 renal, more than 100 µM; in the experiment with T-47D breast, more than 100 µM; in the experiment with SK-MEL-2 melanoma, 70.1 µM; with K-562 leukemia, more than 100 µM; with TK-10 renal it was more than 100 µM. The TGI with 786-0 renal was more than 100 µM; in the experiment on DU-145 prostate, more than 100 µM; in the experiment on HL-60(TB) leukemia, 63.8 µM; in the experiment on OVCAR-3 ovarian, more than 100 µM; with MALME-3M melanoma, more than 100 µM; in the experiment with MDA-N, more than 100 µM. Besides, the TGI with COLO 205 colon is 34.2 µM; in the experiment on UACC-62 melanoma, more than 100 µM; in the experiment with OVCAR-8 ovarian, more than 100 µM; in the experiment on NCI-H226 lung, 91.4 µM.
As for `CC1=CCC[C@@H]2[C@@](C)(Cc3cc(O)ccc3O)[C@H](C)CC[C@@]12C`, the TGI came out at 19.1 µM with SK-MEL-5 melanoma; 12.8 µM with UO-31 renal; 20.1 µM with T-47D breast; 27.9 µM in the experiment on SK-MEL-2 melanoma; 36 µM with K-562 leukemia; 22.2 µM in the experiment with TK-10 renal. For the same compound, the TGI was determined as 21.7 µM in the experiment on 786-0 renal; 27.1 µM with DU-145 prostate; 6.6 µM in the experiment on HL-60(TB) leukemia; 15.3 µM with OVCAR-3 ovarian; 33.1 µM with MALME-3M melanoma; 17 µM in the experiment on MDA-N. The TGI was determined as 36.5 µM in the experiment on COLO 205 colon, 25.1 µM in the experiment on UACC-62 melanoma, 16.7 µM in the experiment with OVCAR-8 ovarian and 39.3 µM in the experiment with NCI-H226 lung.
For the compound `CC1C/C(=N\N(C)C)C(C#N)(C#N)C1(C#N)C#N` (configuration not stated), the TGI with SK-MEL-5 melanoma is 44.2 µM; in the experiment with UO-31 renal, 30.3 µM; in the experiment on T-47D breast it was 37.7 µM; in the experiment on SK-MEL-2 melanoma it was 48.8 µM; with K-562 leukemia it was more than 100 µM; with TK-10 renal it was 27.6 µM. Moreover, the TGI with 786-0 renal is 14.6 µM; with DU-145 prostate, 34 µM; in the experiment on HL-60(TB) leukemia it was more than 100 µM; in the experiment on OVCAR-3 ovarian, 33.9 µM; with MALME-3M melanoma, 13.7 µM; with MDA-N, 33 µM. In addition, the TGI in the experiment on COLO 205 colon is 5.67 µM; with UACC-62 melanoma it was 39.5 µM; with OVCAR-8 ovarian it was 45 µM; with NCI-H226 lung it was more than 65.9 µM.
As to `CC1OC(OC2C(O)COC(OC3C(C)OC(OC4C(OC(=O)[C@]56CCC(C)(C)C[C@@H]5C5=CCC7[C@@]8(C)C[C@H](O)[C@H](OC9OC(CO)C(O)C(OC%10OC(CO)C(O)C(O)C%10O)C9O)[C@@](C)(CO)[C@@H]8CC[C@@]7(C)[C@]5(C)CC6)OCC(O)C4O)C(O)C3OC3OCC(O)C(O)C3O)C2O)C(O)C(O)C1O` (some centres not stated), the TGI in the experiment with SK-MEL-5 melanoma was 15 µM; with UO-31 renal, 9.92 µM; in the experiment on T-47D breast, 14 µM; in the experiment on SK-MEL-2 melanoma it was 11.7 µM; in the experiment on K-562 leukemia, more than 52.3 µM; in the experiment on TK-10 renal it was 22.7 µM. The TGI with 786-0 renal came out at 17.7 µM; in the experiment with DU-145 prostate, 19.7 µM; in the experiment with HL-60(TB) leukemia it was 15 µM; in the experiment on OVCAR-3 ovarian, 27.2 µM; with MALME-3M melanoma it was 29.9 µM; with MDA-N, 7.24 µM. Besides, the TGI with COLO 205 colon turned out to be 3.82 µM; in the experiment with UACC-62 melanoma it was 12.6 µM; in the experiment with OVCAR-8 ovarian, 29 µM; in the experiment on NCI-H226 lung it was 25.1 µM.
On to `CC1(C)CN=C(Nc2ccc(Cl)cc2)S1`, for which the TGI with SK-MEL-5 melanoma, with UO-31 renal, in the experiment on T-47D breast, with SK-MEL-2 melanoma, in the experiment on K-562 leukemia and in the experiment on TK-10 renal was more than 100 µM in each case. Further, the TGI in the experiment on 786-0 renal, with DU-145 prostate, with HL-60(TB) leukemia, in the experiment with OVCAR-3 ovarian, in the experiment on MALME-3M melanoma and in the experiment with MDA-N was more than 100 µM each time. Also, the TGI in the experiment with COLO 205 colon, with UACC-62 melanoma, in the experiment on OVCAR-8 ovarian and with NCI-H226 lung was more than 100 µM throughout.
Turning to `O=C1CC(=O)c2c(Cl)sc(Cl)c21`, the TGI in the experiment on SK-MEL-5 melanoma, in the experiment with UO-31 renal, in the experiment on T-47D breast, with SK-MEL-2 melanoma, with K-562 leukemia and in the experiment with TK-10 renal was more than 100 µM throughout. Besides, the TGI in the experiment on 786-0 renal is more than 100 µM; with DU-145 prostate, more than 100 µM; with HL-60(TB) leukemia it was 85.6 µM; with OVCAR-3 ovarian, more than 100 µM; in the experiment on MALME-3M melanoma it was 67.2 µM; in the experiment with MDA-N it was more than 100 µM. Besides, the TGI in the experiment with COLO 205 colon, with UACC-62 melanoma, in the experiment with OVCAR-8 ovarian and in the experiment on NCI-H226 lung was more than 100 µM each time.
